Source: the supplement of paper PMC10307832

Legend:
Assay in all cases: relative viability (nuclei count vs DMSO), 5 days (fraction); higher = more cells survive
A549 = tested on: A549
How it was run: (§1)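 A single step with final 0.05% Triton X-100, 1% formaldehyde and 1 ug/ml Hoechst fixed the cells and stained nuclei 5 days after treatment. Lung cancer cell lines in 1536-well plates had been treated by pin tool the day after seeding with one drug alone or a fixed anchor-drug dose plus five library-drug doses (not always all listed) in √10 steps, and nuclei were counted on 4× images. Relative viability is the ratio of nuclei in treated wells to nuclei in vehicle wells, taken as the median of duplicate plates.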

Calu-6 = tested on: Calu-6
How it was run: as §1

EBC-1 = tested on: EBC-1
How it was run: as §1

HCC-15 = tested on: HCC-15
How it was run: as §1

IA-LM = tested on: IA-LM
How it was run: as §1

LCLC-103H = tested on: LCLC-103H
How it was run: as §1

NCI-H1299 = tested on: NCI-H1299
How it was run: as §1

NCI-H1703 = tested on: NCI-H1703
How it was run: as §1

UMC-11 = tested on: UMC-11
How it was run: as §1

## CC1(C)CCC(c2ccc(Cl)cc2)=C(CN2CCN(c3ccc(C(=O)NS(=O)(=O)c4ccc(N[C@H](CCN5CCOCC5)CSc5ccccc5)c(S(=O)(=O)C(F)(F)F)c4)cc3)CC2)C1 [Navitoclax] + Cc1nc(NC(=O)N2CCC[C@H]2C(N)=O)sc1-c1ccnc(C(C)(C)C(F)(F)F)c1 [Alpelisib] (partner 2 µM)
A549; first compound 0.005 µM
  relative viability: 0.774
A549; first compound 0.01581 µM
  relative viability: 0.932
A549; first compound 0.05 µM
  relative viability: 0.922
A549; first compound 0.1581 µM
  relative viability: 0.803
A549; first compound 0.5 µM
  relative viability: 0.778
Calu-6; first compound 0.005 µM
  relative viability: 0.973
Calu-6; first compound 0.01581 µM
  relative viability: 1.08
Calu-6; first compound 0.05 µM
  relative viability: 0.943
Calu-6; first compound 0.1581 µM
  relative viability: 0.875
Calu-6; first compound 0.5 µM
  relative viability: 0.938
EBC-1; first compound 0.005 µM
  relative viability: 0.781
EBC-1; first compound 0.01581 µM
  relative viability: 1.13
EBC-1; first compound 0.05 µM
  relative viability: 0.928
EBC-1; first compound 0.1581 µM
  relative viability: 0.829
EBC-1; first compound 0.5 µM
  relative viability: 0.592
HCC-15; first compound 0.005 µM
  relative viability: 0.879
HCC-15; first compound 0.01581 µM
  relative viability: 0.957
HCC-15; first compound 0.05 µM
  relative viability: 0.88
HCC-15; first compound 0.1581 µM
  relative viability: 0.882
HCC-15; first compound 0.5 µM
  relative viability: 0.764
IA-LM; first compound 0.005 µM
  relative viability: 0.69
IA-LM; first compound 0.01581 µM
  relative viability: 0.986
IA-LM; first compound 0.05 µM
  relative viability: 0.737
IA-LM; first compound 0.1581 µM
  relative viability: 0.792
IA-LM; first compound 0.5 µM
  relative viability: 0.833
LCLC-103H; first compound 0.005 µM
  relative viability: 0.948
LCLC-103H; first compound 0.01581 µM
  relative viability: 1.13
LCLC-103H; first compound 0.05 µM
  relative viability: 0.97
LCLC-103H; first compound 0.1581 µM
  relative viability: 0.919
LCLC-103H; first compound 0.5 µM
  relative viability: 0.963
NCI-H1299; first compound 0.005 µM
  relative viability: 1.01
NCI-H1299; first compound 0.01581 µM
  relative viability: 1.09
NCI-H1299; first compound 0.05 µM
  relative viability: 1.11
NCI-H1299; first compound 0.1581 µM
  relative viability: 1.06
NCI-H1299; first compound 0.5 µM
  relative viability: 1.03
NCI-H1703; first compound 0.005 µM
  relative viability: 0.308
NCI-H1703; first compound 0.01581 µM
  relative viability: 0.406
NCI-H1703; first compound 0.05 µM
  relative viability: 0.425
NCI-H1703; first compound 0.1581 µM
  relative viability: 0.457
NCI-H1703; first compound 0.5 µM
  relative viability: 0.336
UMC-11; first compound 0.005 µM
  relative viability: 0.961
UMC-11; first compound 0.01581 µM
  relative viability: 1.02
UMC-11; first compound 0.1581 µM
  relative viability: 0.979
UMC-11; first compound 0.5 µM
  relative viability: 0.623

## Oc1nc(-c2ccc(C(F)(F)F)cc2)nc2c1CSCC2 [XAV939] + CS(=O)(=O)N1CCN(Cc2cc3nc(-c4cccc5[nH]ncc45)nc(N4CCOCC4)c3s2)CC1 [Pictilisib] (partner 1 µM)
A549; first compound 0.08 µM
  relative viability: 0.629
A549; first compound 0.253 µM
  relative viability: 0.491
A549; first compound 0.8 µM
  relative viability: 0.372
A549; first compound 2.53 µM
  relative viability: 0.296
Calu-6; first compound 0.08 µM
  relative viability: 1.09
Calu-6; first compound 0.253 µM
  relative viability: 0.843
Calu-6; first compound 0.8 µM
  relative viability: 0.972
Calu-6; first compound 2.53 µM
  relative viability: 0.841
EBC-1; first compound 0.08 µM
  relative viability: 0.437
EBC-1; first compound 0.253 µM
  relative viability: 0.346
EBC-1; first compound 0.8 µM
  relative viability: 0.329
EBC-1; first compound 2.53 µM
  relative viability: 0.261
HCC-15; first compound 0.08 µM
  relative viability: 0.858
HCC-15; first compound 0.253 µM
  relative viability: 0.632
HCC-15; first compound 0.8 µM
  relative viability: 0.736
HCC-15; first compound 2.53 µM
  relative viability: 0.755
IA-LM; first compound 0.08 µM
  relative viability: 0.449
IA-LM; first compound 0.253 µM
  relative viability: 0.317
IA-LM; first compound 0.8 µM
  relative viability: 0.245
IA-LM; first compound 2.53 µM
  relative viability: 0.17
LCLC-103H; first compound 0.08 µM
  relative viability: 0.724
LCLC-103H; first compound 0.253 µM
  relative viability: 0.483
LCLC-103H; first compound 0.8 µM
  relative viability: 0.601
LCLC-103H; first compound 2.53 µM
  relative viability: 0.498
NCI-H1299; first compound 0.08 µM
  relative viability: 0.857
NCI-H1299; first compound 0.253 µM
  relative viability: 0.701
NCI-H1299; first compound 0.8 µM
  relative viability: 0.642
NCI-H1299; first compound 2.53 µM
  relative viability: 0.511
NCI-H1703; first compound 0.08 µM
  relative viability: 0.275
NCI-H1703; first compound 0.253 µM
  relative viability: 0.243
NCI-H1703; first compound 0.8 µM
  relative viability: 0.258
NCI-H1703; first compound 2.53 µM
  relative viability: 0.241
UMC-11; first compound 0.08 µM
  relative viability: 0.733
UMC-11; first compound 0.8 µM
  relative viability: 0.752
UMC-11; first compound 2.53 µM
  relative viability: 0.712
